Test results as given in PubChem BioAssay AID1919000 (Molecular Pharmacology Branch, DTP, NCI, 2023).
Several values for one entry are separate records, joined by “and”; a condition that tells them apart may be missing. Equal values may be shown once.

System: 653999-131-R-J2-PDC complex spheroids, growth % test/control
Assay: Anticancer human tumor 653999-131-R-J2-PDC patient-derived lung adenocarcinoma cell line growth inhibition [AhR]
Conditions: for viability, T/C: stronger effect = lower value; active means viability on the fitted dose curve at most 10% of control; inactive means the rest
Description: Multicellular complex tumor spheroid response to aryl hydrocarbon receptor antagonists in combination with a variety of drugs and investigational agents in selected tumor cell lines
The current study was undertaken to assess response to aryl hydrocarbon receptor antagonists in combination with standard-of-care drugs and investigational agents in solid tumor complex spheroid models. Complex spheroids include a stromal component modeled by human endothelial cells (HUVEC) and fibroblasts modeled by human mesenchymal stem cells (MSCs). The concentration ranges selected for each drug and investigational agent were based upon clinically achievable concentrations if the clinical Cmax of the agent was known.
Compounds. The drugs and investigational agents: BAY 2416964 (NSC825713), GNF351 (NSC835774), CH-223191 (NSC835775), CPI-455 (NSC825282), aza-TdCyd (NSC777586), decitabine (NSC127716), belinostat (NSC758774), entinostat (NSC756642), pevonedistat (NSC761192), tazemetostat (NSC777109), talazoparib (NSC765396), olaparib (NSC753686), selinexor (NSC780203), nedisertib (M3814, NSC802822), bortezomib (NSC756655), venetoclax (NSC766270), doxorubicin (NSC123127), elimusertib (BAY189344, NSC800525), ceralasertib (AZD6738, NSC777638), TAK-243 (NSC785004), alisertib (NSC759677), etoposide (NSC141540), topotecan (NSC609699), eribulin (NSC707389), gemcitabine (NSC613327), carboplatin (NSC241240), cisplatin (NSC119875), and SN-38 (NSC673596) were obtained from the National Cancer Institute (NCI) Developmental Therapeutics Program Chemical Repository (32). The FDA-approved anticancer drug set is available from the Developmental Therapeutics Program at https://dtp.cancer.gov/organization/dscb/obtaining/available plates.htm. […] The stock solutions were prepared in dimethyl sulfoxide (DMSO, Sigma-Aldrich, St. Louis, MO, cat. D2650), except for the platinum compounds which were prepared in saline (Quality Biological, Gaithersburg, MD, cat. 114-055-101), at 800-fold the tested concentration and stored at -70 degrees C prior to their use. All drugs and investigational agents were tested over a range starting from a high concentration at or near the clinical Cmax and decreasing in half-log increments. If the clinical Cmax for an agent had not been determined, the highest concentration tested was 10 microM (Table 1).
Cell Culture. All cells were maintained in an incubator at 37 degrees C and 5% CO2 with 95% humidity. The PDC lines were cultured according to standard operating procedures established by the NCI PDMR (https://pdmr.cancer.gov). Briefly, all PDCs were thawed and cultured in Matrigel-coated flasks prepared with a working solution of 1X Ham's F-12 nutrient mix, without supplementation (Invitrogen, Waltham, MA, cat. 11765054), 100 U/mL penicillin-streptomycin (Invitrogen, cat. 15140122), and 2.5% Matrigel (Corning Inc., Corning, NY, cat. 354248) for the first three passages. All PDCs were cultured in complete DMEM/F-12 media containing advanced DMEM/F-12 (Invitrogen, cat. 12634028), 4.9% defined fetal bovine serum, heat inactivated (HyClone Laboratories Inc., Logan, UT, cat. SH30070.03HI), 389 ng/mL hydrocortisone (Sigma-Aldrich, cat. H4001), 9.7 ng/mL human EGF recombinant protein (Invitrogen, cat. PHG0313), 23.4 microg/mL adenine (Sigma-Aldrich, cat. A2786), 97.3 U/mL penicillin-streptomycin (Invitrogen, cat. 15140122), 1.9 mM L-glutamine (Invitrogen, cat. 25030081), and 9.7 microM Y-27632 dihydrochloride (Tocris Bioscience, Bristol, United Kingdom, cat. 1254). The PDCs were cultured in complete DMEM/F12 media without 10 microM Y-27632 dihydrochloride for at least two passages prior to the screen. The established cell lines NCI-H1341 and […] were cultured in DMEM/F-12, HEPES (Invitrogen, cat. 11330032), 5% defined fetal bovine serum (HyClone Laboratories Inc., cat. SH30070.03), ITS premix universal culture supplement [insulin (5 microg/mL), transferrin (5 microg/mL), and selenious acid (5 ng/mL)] […]

[1] = curve of first compound, second compound 0.1 µM
[2] = curve of first compound, second compound 0.316 µM
[3] = curve of first compound, second compound 1 µM
[4] = curve of first compound, second compound 3.16 µM
[5] = curve of first compound, second compound 10 µM
[6] = second compound 0.1 µM, first compound 0.0316 µM
[7] = second compound 0.1 µM, first compound 0.1 µM
[8] = second compound 0.1 µM, first compound 0.316 µM
[9] = second compound 0.1 µM, first compound 1 µM
[10] = second compound 0.316 µM, first compound 0.0316 µM
[11] = second compound 0.316 µM, first compound 0.1 µM
[12] = second compound 0.316 µM, first compound 0.316 µM
[13] = second compound 0.316 µM, first compound 1 µM
[14] = second compound 1 µM, first compound 0.0316 µM
[15] = second compound 1 µM, first compound 0.1 µM
[16] = second compound 1 µM, first compound 0.316 µM
[17] = second compound 1 µM, first compound 1 µM
[18] = second compound 3.16 µM, first compound 0.0316 µM
[19] = second compound 3.16 µM, first compound 0.1 µM
[20] = second compound 3.16 µM, first compound 0.316 µM
[21] = second compound 3.16 µM, first compound 1 µM
[22] = second compound 10 µM, first compound 0.0316 µM
[23] = second compound 10 µM, first compound 0.1 µM
[24] = second compound 10 µM, first compound 0.316 µM
[25] = second compound 10 µM, first compound 1 µM
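Further: spheroids exposed to agents for seven days.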

CCN(c1cc(-c2ccc(CN3CCOCC3)cc2)cc(C(=O)NCc2c(C)cc(C)[nH]c2=O)c1C)C1CCOCC1 + Cc1ccccc1N=Nc1ccc(NC(=O)c2ccnn2C)c(C)c1
> 3 µM: IC50 [1] | IC50 [2] | IC50 [3] | IC50 [4] | IC50 [5]
inactive: viability, T/C (second compound 0.1 µM, first compound 0.00949 µM) 92.9% | viability, T/C (second compound 0.1 µM, first compound 0.03 µM) 102% | viability, T/C (second compound 0.1 µM, first compound 0.0949 µM) 97.9% | viability, T/C (second compound 0.1 µM, first compound 0.3 µM) 103% | viability, T/C (second compound 0.1 µM, first compound 0.949 µM) 97.8% | viability, T/C (second compound 0.1 µM, first compound 3 µM) 92.7% | viability, T/C (second compound 0.316 µM, first compound 0.00949 µM) 93.2% | viability, T/C (second compound 0.316 µM, first compound 0.03 µM) 95.6% | viability, T/C (second compound 0.316 µM, first compound 0.0949 µM) 95.5% | viability, T/C (second compound 0.316 µM, first compound 0.3 µM) 95.3% | viability, T/C (second compound 0.316 µM, first compound 0.949 µM) 93.3% | viability, T/C (second compound 0.316 µM, first compound 3 µM) 92.5% | viability, T/C (second compound 1 µM, first compound 0.00949 µM) 91.6% | viability, T/C (second compound 1 µM, first compound 0.03 µM) 95.2% | viability, T/C (second compound 1 µM, first compound 0.0949 µM) 89% | viability, T/C (second compound 1 µM, first compound 0.3 µM) 91.8% | viability, T/C (second compound 1 µM, first compound 0.949 µM) 88.3% | viability, T/C (second compound 1 µM, first compound 3 µM) 93% | viability, T/C (second compound 3.16 µM, first compound 0.00949 µM) 102% | viability, T/C (second compound 3.16 µM, first compound 0.03 µM) 96.1% | viability, T/C (second compound 3.16 µM, first compound 0.0949 µM) 92.8% | viability, T/C (second compound 3.16 µM, first compound 0.3 µM) 89.5% | viability, T/C (second compound 3.16 µM, first compound 0.949 µM) 86.3% | viability, T/C (second compound 3.16 µM, first compound 3 µM) 84% | viability, T/C (second compound 10 µM, first compound 0.00949 µM) 82.1% | viability, T/C (second compound 10 µM, first compound 0.03 µM) 80.8% | viability, T/C (second compound 10 µM, first compound 0.0949 µM) 81.6% | viability, T/C (second compound 10 µM, first compound 0.3 µM) 86.1% | viability, T/C (second compound 10 µM, first compound 0.949 µM) 78.8% | viability, T/C (second compound 10 µM, first compound 3 µM) 79.9%

COc1ccc([C@@H](O)c2cc(-c3ncnc4cc(N5CCOCC5)ccc34)c(F)cc2Cl)nn1
inactive: viability, T/C (compound 0.0316 µM) 112% and 97% and 106% | viability, T/C (compound 0.1 µM) 105% and 114% and 103% | viability, T/C (compound 0.316 µM) 100% and 91.4% and 81.3% | viability, T/C (compound 1 µM) 90.5% and 90.1% and 83.8% | viability, T/C (compound 3.16 µM) 66.2% and 61.9% and 69.9% | viability, T/C (compound 10 µM) 44.8% and 45.4% and 42.3%
7.57 µM and 7.28 µM and 7.56 µM: IC50 (curve of compound)

CC1COCCN1c1cc(-c2ccnn2C)c2ccnc(-c3ccn[nH]3)c2n1 (configuration not stated) + Cc1ccccc1N=Nc1ccc(NC(=O)c2ccnn2C)c(C)c1
0.193 µM: IC50 [3]
0.168 µM: IC50 [1]
0.138 µM: IC50 [4]
inactive: viability, T/C (second compound 0.1 µM, first compound 0.00316 µM) 98.7% | viability, T/C (second compound 0.1 µM, first compound 0.01 µM) 101% | viability, T/C [6] 82% | viability, T/C [7] 59.7% | viability, T/C [8] 38.7% | viability, T/C [9] 34.5% | viability, T/C (second compound 0.316 µM, first compound 0.00316 µM) 103% | viability, T/C (second compound 0.316 µM, first compound 0.01 µM) 103% | viability, T/C [10] 78.4% | viability, T/C [11] 60.3% | viability, T/C [12] 36.6% | viability, T/C [13] 31.8% | viability, T/C (second compound 1 µM, first compound 0.00316 µM) 102% | viability, T/C (second compound 1 µM, first compound 0.01 µM) 100% | viability, T/C [14] 76.9% | viability, T/C [15] 65.1% | viability, T/C [16] 37.9% | viability, T/C [17] 36.3% | viability, T/C (second compound 3.16 µM, first compound 0.00316 µM) 103% | viability, T/C (second compound 3.16 µM, first compound 0.01 µM) 107% | viability, T/C [18] 84.5% | viability, T/C [19] 54.9% | viability, T/C [20] 39.8% | viability, T/C [21] 35.1% | viability, T/C (second compound 10 µM, first compound 0.00316 µM) 89.7% | viability, T/C (second compound 10 µM, first compound 0.01 µM) 89.3% | viability, T/C [22] 76.3% | viability, T/C [23] 57.6% | viability, T/C [24] 49.8% | viability, T/C [25] 39.1%
0.157 µM: IC50 [2]
0.233 µM: IC50 [5]

O=C(c1cc(Cc2n[nH]c(=O)c3ccccc23)ccc1F)N1CCN(C(=O)C2CC2)CC1 + CC(CO)NC(=O)c1cc(-c2ccc(Cl)cc2)nn(-c2cnn(C)c2)c1=O
> 10 µM: IC50 [1] | IC50 [2] | IC50 [3] | IC50 [4] | IC50 [5]
inactive: viability, T/C [6] 82.1% | viability, T/C [7] 89.5% | viability, T/C [8] 81.5% | viability, T/C [9] 83.6% | viability, T/C (second compound 0.1 µM, first compound 3.16 µM) 79.9% | viability, T/C (second compound 0.1 µM, first compound 10 µM) 76.9% | viability, T/C [10] 91% | viability, T/C [11] 97.5% | viability, T/C [12] 96.1% | viability, T/C [13] 84.2% | viability, T/C (second compound 0.316 µM, first compound 3.16 µM) 81.1% | viability, T/C (second compound 0.316 µM, first compound 10 µM) 78.7% | viability, T/C [14] 84.7% | viability, T/C [15] 90.4% | viability, T/C [16] 89.5% | viability, T/C [17] 85.6% | viability, T/C (second compound 1 µM, first compound 3.16 µM) 81.7% | viability, T/C (second compound 1 µM, first compound 10 µM) 79.5% | viability, T/C [18] 95% | viability, T/C [19] 86.6% | viability, T/C [20] 93% | viability, T/C [21] 85.5% | viability, T/C (second compound 3.16 µM, first compound 3.16 µM) 84.6% | viability, T/C (second compound 3.16 µM, first compound 10 µM) 78.3% | viability, T/C [22] 88% | viability, T/C [23] 94.5% | viability, T/C [24] 82.9% | viability, T/C [25] 84.5% | viability, T/C (second compound 10 µM, first compound 3.16 µM) 76.3% | viability, T/C (second compound 10 µM, first compound 10 µM) 75.7%
